Experimental data as given in patent US20210255168A1, “A METHOD OF PRECISION CANCER THERAPY” (KING FAISAL SPECIALIST HOSPITAL & RESEARCH CENTRE, priority 2018, published 2021).

Key:
[1] = tested on: TNF-α-ARE luciferase reporter in MDA-MB-231 cells; experiment: Post-transcriptional ARE luciferase reporter assay (kinase inhibitor library screen); type: cell-based; conditions: 0.5, 2 and 5 μM, ARE and non-ARE reporters
[2] = tested on: TNF-α-ARE luciferase reporter in MDA-MB-231 cells; experiment: as above; type: cell-based; conditions: for reduction of ARE-reporter activity (in words): PK inhibitor library
Source text: Reporters were designed to be driven by the ribosomal protein subunit 30 (RPS30) promoter. The promoter was amplified using PCR with primers specific to the flanking region of the RPS30 promoter sequence. The gene structure of RPS30 was obtained from the Ribosomal Protein Database (http://ribosome.med.miyazaki-u.ac.jp). The forward and reverse primers included the restriction sites, EcoR V and SalI sites. Amplified DNA fragments were then resolved in 1.2%-1.5% agarose gel and the amplicon bands were excised, purified and cloned into the promoterless plasmid. TNF-α 3′-UTR and TNF-α ARE were used to study the role of AU-rich elements in the action of PKs inhibitors. The AU-rich sequence that comprised 250 bases from TNF-α 3′UTR (1200-1450 bp, NM_00059) was amplified by PCR using the forward primer 5′-[…]-3′ (SEQ ID NO:1) and the reverse primer 5′-[…]-3′ (SEQ ID NO:2). The TNF-α-ARE sequence was made by annealing two synthetic complementary oligonucleotides of 70 bases that correspond to TNF-α ARE. The control reporter was constructed to have the basic structure of post-transcriptional reporter except 3′UTR which lack the AU-rich element sequence like this of bovine growth hormone. Any ARE reiterations or variations can be used, with minimal sequence is AUUUA, preferably, WW(AUUUA)WW, where W=A or U. They can be also repeated as an overall, e.g., AUUUAUUA, anywhere from 0 to 10 repeats as example.
Selleckchem Kinase Inhibitor Library that includes a selection of 378 pharmacologically active inhibitors of a number of protein kinases was purchased from Selleckchem. (Houston, Tex., USA). This library is a collection of 378 kinase inhibitors some of which have been approved by the FDA. Each compound is provided as a pre-dissolved 10 mM dimethyl sulfoxide (DMSO) solution as a 96 well format tube (100 μL). The compounds were diluted by OPTI-MEM (Thermo Fisher Scientific, Waltham, Mass., USA) to a final concentration of 5 μM.
Post-transcriptional and control reporter constructs were transfected to MDA-MB-231 cells separately that were seeded in 96-well microplates at a density of 4×10^4 cells/well and incubated overnight. Using lipofectamine 2000 protocol (Invitrogen, Carlsbad, Calif., USA), the cells were transfected with 10 ng of either RPS30-luciferase-control 3′UTR or RPS30-luciferase-ARE 3′UTR reporter plasmids. After 24 h, the cells were treated with each member of protein kinase inhibitors kit for 24 h. Then, luciferase reaction was performed as prescribed by manufacture's protocol (Nano-Glo Luciferase, Promega, Madison, Wis., USA)/well. After 15 minutes, the reporters' activities were measured through the measurement of the chemiluminescence (FIG. 8) after treatment using a Zenith 3100 (Anthos Labtec, Eugendorf, Austria).
Data are presented as means±standard error of the mean (SEM). Two-sample Student's t-test was used to determine the differences between two data sets. One-way analysis of variance (ANOVA) was used to compare three or more data columns. Two-way analysis of variance was used to analyze two groups of data, each having two data columns. Analysis was performed using GraphPad Prism version 6.00 for Windows, (GraphPad Software, La Jolla Calif., USA). For high throughput screening (HTS) hit selection (protein kinase inhibitors), strictly standardized mean difference (SSMD) test was used. This statistical test measures the size of effect of each member in a group relative to the other members. It is the mean of each member divided by the standard deviation of the difference between two random values from different groups. Based on the value of SSMD, the effect of each member of the library was classified as strong (β≥5), moderate (1≤β<5), and weak (β<1). In this study, only drug with SSMD score more than or equal to 5 or less than or equal to −5, i.e. strong β, where selected in the primary screening. […]

[3] = tested on: MDA-MB-231, MCF7, and SKBR3 cell lines; experiment: mRNA expression in breast cancer cell lines; type: cell-based; conditions: MCF7, MDA-MB-231 and SKBR3; most of the cancer cell lines
Description: Cells were cultured in six-well plates and either treated with DMSO or drugs for 24 h. Total RNA was then extracted using Trizol reagent (TRI Reagent, Sigma-Aldrich, St Louis, Mo.). The cells were lysed directly on the culture dish by adding 1 ml of the TRI Reagent per 10 cm^2 surface area. Reverse transcription for preparation of cDNA was performed using 3 μg of total RNA, 150 ng random primers, 0.1 M dithiothreitol (DTT), 10 mM deoxynucleotide triphosphate (dNTP) and 200 U of SuperScript II (Invitrogen, Foster City, Calif.). The quantitative RT-QPCR was performed in multiplex in the Chroma 4 DNA Engine cycler (BioRad, Hercules, Calif., USA) using FAM-labelled TaqMan probes (Applied Biosystems, Foster City, Calif., USA) for TTP (ZFP36), HuR (ELAVL1), uPA (PLAU)-CXCR4, MMP-1, MMP-13, IL-8, PLK-1 while a VIC-labelled glyceraldehyde-3-phosphate dehydrogenase (GAPDH) probe was used as the endogenous control. Samples were amplified in triplicate and quantification of relative expression was performed using the estimation of quantitation cycle (Cq) method.
PLK1 kinase, as an example of kinases involved in cancer, is over-expressed in breast cancer cell lines, including MCF7, MDA-MB-231 and SKBR3 when compared to the normal-like MCF10A (FIG. 5A). Many kinases are either over-expressed or constitutively active or hyperactive in cancer states when compared to normal cells. As example of inhibitors that are found in the precision cancer therapy screen, Volasertib and Regorafenib (VEGFR kinase inhibitor) led to reduction in the level of ARE-containing mRNA, uPA in most of the cancer cell lines. (FIG. 5B).
The present inventors further disclose that the effect of PLK-1 inhibition is consistent among different types of breast cancer including triple-negative, […], and ER-PR negative breast cancers, as shown through the actions induced by PLK-1 inhibitor volasertib on MDA-MB-231, MCF7, and SKBR3 cell lines, namely increasing the expression of TTP, decreasing the HuR level, and downregulating the TTP target uPA. […] Accordingly, the present inventor discloses that any protein kinase inhibitor which post-transcriptionally regulates expression of cancer-related genes is suitable for precision cancer therapy. Further disclosed is a method of treatment of cancer comprising administering said protein kinase inhibitor, to a patient in need thereof.

PLK-2 = PLK-2 (Homo sapiens, UniProt Q9NYY3); conditions: cited from earlier work
Sequence of PLK-2 (Q9NYY3 whole entry, species assumed): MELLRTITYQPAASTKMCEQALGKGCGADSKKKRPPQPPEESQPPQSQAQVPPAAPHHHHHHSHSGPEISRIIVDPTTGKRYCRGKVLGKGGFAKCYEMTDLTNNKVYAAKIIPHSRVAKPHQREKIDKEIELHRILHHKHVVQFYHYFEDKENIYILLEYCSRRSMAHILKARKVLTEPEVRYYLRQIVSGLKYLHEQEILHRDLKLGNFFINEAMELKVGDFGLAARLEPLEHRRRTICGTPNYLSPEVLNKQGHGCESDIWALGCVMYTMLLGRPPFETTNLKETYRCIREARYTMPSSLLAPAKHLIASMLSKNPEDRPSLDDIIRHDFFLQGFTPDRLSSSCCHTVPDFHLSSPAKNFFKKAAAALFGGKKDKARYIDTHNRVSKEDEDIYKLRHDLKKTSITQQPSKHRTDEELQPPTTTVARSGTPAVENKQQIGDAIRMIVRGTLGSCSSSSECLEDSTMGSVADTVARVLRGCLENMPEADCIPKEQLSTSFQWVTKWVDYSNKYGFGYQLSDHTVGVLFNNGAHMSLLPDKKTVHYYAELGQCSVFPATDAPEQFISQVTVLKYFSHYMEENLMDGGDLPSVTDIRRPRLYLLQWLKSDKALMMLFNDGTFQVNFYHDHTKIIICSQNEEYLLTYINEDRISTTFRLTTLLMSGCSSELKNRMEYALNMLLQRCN

PLK-3 = PLK-3 (Homo sapiens, UniProt Q9H4B4); conditions: cited from earlier work
Sequence of PLK-3 (Q9H4B4 whole entry, species assumed): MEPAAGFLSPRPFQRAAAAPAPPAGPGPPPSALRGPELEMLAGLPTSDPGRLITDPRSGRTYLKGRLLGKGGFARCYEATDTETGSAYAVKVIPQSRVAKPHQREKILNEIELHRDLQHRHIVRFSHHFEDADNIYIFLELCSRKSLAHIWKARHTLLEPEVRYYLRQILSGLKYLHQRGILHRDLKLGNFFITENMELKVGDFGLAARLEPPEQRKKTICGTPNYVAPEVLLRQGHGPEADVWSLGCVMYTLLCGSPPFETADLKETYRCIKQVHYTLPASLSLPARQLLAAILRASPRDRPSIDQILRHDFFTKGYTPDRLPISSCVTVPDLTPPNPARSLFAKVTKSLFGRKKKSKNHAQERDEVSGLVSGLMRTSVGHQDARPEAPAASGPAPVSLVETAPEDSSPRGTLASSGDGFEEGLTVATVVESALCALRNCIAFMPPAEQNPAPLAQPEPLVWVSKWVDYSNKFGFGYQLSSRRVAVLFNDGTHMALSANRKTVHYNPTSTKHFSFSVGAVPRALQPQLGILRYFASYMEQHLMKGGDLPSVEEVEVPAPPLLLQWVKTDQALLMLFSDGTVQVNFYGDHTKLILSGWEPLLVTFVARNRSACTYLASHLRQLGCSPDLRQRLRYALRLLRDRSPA

Cc1ccc(NC(=O)c2cccc(C(C)(C)C#N)c2)cc1Nc1ccc2ncn(C)c(=O)c2c1 [AZ628]
ARE-dependent mRNA regulation confirmed in later stages of screening compared to a non-ARE reporter [1]: confirmed to be involved in ARE-dependent mRNA regulation

CC[C@@H]1C(=O)N(C)c2cnc(Nc3ccc(C(=O)NC4CCN(C)CC4)cc3OC)nc2N1C1CCCC1 [BI 2536]
reduction of TNF-ARE luciferase reporter activity ([2]; primary screening, 5 μM): 35% | reduction in percent reporter activity in the secondary screening compared to the control reporter ([2]; secondary screening, ARE vs non-ARE control reporter): 16%

C[C@@H](Oc1cc(-n2cnc3ccc(CN4CCN(C)CC4)cc32)sc1C(N)=O)c1ccccc1C(F)(F)F [GSK461364]
reduction of ARE-reporter activity (in words) [2]: did not reduce

COc1ccc(S(=O)(=O)N(C(C)=O)c2ccccc2/C=C/c2cc[n+]([O-])cc2)cc1 [HMN-214]
reduction of ARE-reporter activity (in words) [2]: did not reduce

CN1CCN(c2ccc(OC(F)(F)F)c(Nc3ncc4c(n3)-c3c(c(C(N)=O)nn3CCO)CC4)c2)CC1 [NMS-P937]
reduction of ARE-reporter activity (in words) [2]: did not reduce

CNC(=O)c1cc(Oc2ccc(NC(=O)Nc3ccc(Cl)c(C(F)(F)F)c3)c(F)c2)ccn1 [Regorafenib]
level of ARE-containing mRNA uPA in cancer cell lines [3]: reduction | ARE-dependent mRNA regulation confirmed in later stages of screening compared to a non-ARE reporter [1]: confirmed to be involved in ARE-dependent mRNA regulation

COc1cc(OC)c(/C=C/S(=O)(=O)Cc2ccc(OC)c(NCC(=O)O)c2)c(OC)c1 [rigosertib]
reduction of ARE-reporter activity (in words) [2]: did not reduce | selectivity (PLK-1) against PLK-2 (PLK-2): more than 30 fold | activity on PLK-3 (PLK-3): no activity

Ro3280
reduction of ARE-reporter activity (in words) [2]: did not reduce
